Converted amounts (≈) assume the structure as drawn. Like-named read-outs stand apart in the source and are kept apart here.
How the values were obtained:
E. faecalis ATCC 29212 = experiment: MIC determination, E. faecalis ATCC 29212; format: cell-based, Enterococcus faecalis; conditions: for MIC: Enterococcus faecalis, read-out: MIC E. faecalis ATCC 29212
S. pneumoniae ATCC 6301 = experiment: MIC determination, S. pneumoniae ATCC 6301; format: cell-based, Streptococcus pneumoniae; conditions: for MIC S. pneumonia ATCC 6301: Table 2; for MIC: Streptococcus pneumoniae
S. aureus ATCC 29213 = experiment: MIC determination, S. aureus ATCC 29213; format: cell-based, Staphylococcus aureus; conditions: for MIC: Staphylococcus aureus, read-out: MIC S. aureus ATCC 29213
E. faecium CT-26 = experiment: MIC determination, E. faecium CT-26; format: cell-based, Enterococcus faecium; conditions: for MIC: Enterococcus faecium, read-out: MIC E. faecium CT-26
H. influenzae ATCC 49766 = experiment: MIC determination, H. influenzae ATCC 49766; format: cell-based, Haemophilus influenzae; conditions: Table 2; for MIC: Haemophilus influenzae, ATCC49766
[1] = tested on: S. epidermidis ATCC 12228; experiment: MIC determination, S. epidermidis ATCC 12228; format: cell-based, Staphylococcus epidermidis; conditions: for MIC: Staphylococcus epidermidis, read-out: MIC S. epidermidis ATCC 12228
[2] = tested on: M. catarrhalis ATCC 25238; experiment: MIC determination, M. catarrhalis ATCC 25238; format: cell-based; conditions: Table 1
[3] = ATCC6301, Table 2, read-out: MIC S. pneumonia ATCC 6301

Compound | MIC E. faecalis ATCC 29212 (E. faecalis ATCC 29212; Table 2) [micrograms per ml] | MIC S. pneumonia ATCC 6301 (S. pneumoniae ATCC 6301) [micrograms per ml] | MIC S. aureus ATCC 29213 (S. aureus ATCC 29213; Table 2) [micrograms per ml] | MIC E. faecium CT-26 (E. faecium CT-26; Table 2) [micrograms per ml] | MIC H. influenzae ATCC 49766 (H. influenzae ATCC 49766) [micrograms per ml] | MIC S. epidermidis ATCC 12228 ([1]; Table 2) [micrograms per ml] | MIC (E. faecalis ATCC 29212; ATCC29212, Table 2) [µg/mL] | MIC (S. aureus ATCC 29213; ATCC29213, Table 2) [µg/mL] | MIC (H. influenzae ATCC 49766) [µg/mL] | MIC ([1]; ATCC12228, Table 2) [µg/mL] | further results
O=C(O)c1ncccc1O [Compound 115, 3-hydroxypicolinic acid] | 8 | 1 | 2 | 16 | 64 | 2 | – | – | – | – | –
C[C@@H](O)[C@H]1C(=O)N2C(C(=O)O)=C(S[C@@H]3CN[C@H](C(=O)N(C)C)C3)[C@H](C)[C@H]12 [Meropenem, reference compound] | – | – | – | – | – | – | 2 (≈ 5.22 µM) | 0.06 (≈ 0.156 µM) | 0.06 (≈ 0.156 µM) | 0.06 (≈ 0.156 µM) | MIC (E. faecalis ATCC 29212; ATCC29212, Table 1): 2 µg/mL (≈ 5.22 µM); MIC (S. aureus ATCC 29213; ATCC29213, Table 1): 0.06 µg/mL (≈ 0.156 µM); MIC ([1]; ATCC12228, Table 1): 0.06 µg/mL (≈ 0.156 µM)
CC1(C)O[B-](c2ccc(Cl)cc2)(c2ccc(Cl)cc2)[n+]2cccc(O)c21 [Compound 103] | 4 | 0.5 | 0.25 | 1 | 64 | 0.5 | – | – | – | – | –
Clc1cccc(B(OCCc2c[nH]cn2)c2cccc(Cl)c2)c1 [Compound 121, Bis(3-Chlorophenyl)borinic acid 4-(hydroxyethyl)imidazole ester] | 32 | 8 | 0.125 | 32 | 4 | 4 | – | – | – | – | –
Nc1ccc(O)c(C(=O)O)n1 [Compound 122] | – | – | – | – | – | – | 32 (≈ 208 µM) | 0.25 (≈ 1.62 µM) | 8 (≈ 51.9 µM) | 4 (≈ 26 µM) | MIC (S. pneumoniae ATCC 6301; [3]): 16 µg/mL (≈ 104 µM); MIC (E. faecium CT-26; CT26, Table 2): 32 µg/mL (≈ 208 µM)
CC1(C)O[B-](c2cccc(Cl)c2)(c2cccc(Cl)c2)[n+]2cccc(O)c21 [Compound 102] | 64 | 0.25 | 0.5 | 2 | 64 | 1 | – | – | – | – | –
O=C(O)c1ncccc1O [Compound 114, 3-hydroxypicolinic acid] | 64 | – | 0.125 | 64 | 16 | 8 | – | – | – | – | –
Cc1ccc(B(OC(=O)c2ncccc2O)c2ccc(C)c(Cl)c2)cc1Cl [Compound 111, Bis(3-Chloro-4-methylphenyl)borinic acid 3-hydroxypicolinate ester] | 2 | – | 2 | 2 | 64 | 1 | – | – | – | – | –
O=C(O)c1ncccc1OCCO [Compound 107] | – | – | – | – | – | – | 16 (≈ 87.4 µM) | 0.125 (≈ 0.682 µM) | 32 (≈ 175 µM) | 4 (≈ 21.8 µM) | MIC (E. faecium CT-26; CT26, Table 2): 8 µg/mL (≈ 43.7 µM)
Cc1cc(Cl)ccc1B(OC(=O)c1ncccc1O)c1ccc(Cl)cc1C [Compound 118, bis(2-methyl-4-chlorophenyl)borinic acid 3-hydroxypicolinate ester] | 1 | 0.12 | 1 | 1 | 16 | 0.25 | – | – | – | – | –
CC[C@H]1OC(=O)[C@H](C)[C@@H](O[C@H]2C[C@@](C)(OC)[C@@H](O)[C@H](C)O2)[C@H](C)[C@@H](O[C@@H]2O[C@H](C)C[C@H](N(C)C)[C@H]2O)[C@](C)(O)C[C@@H](C)C(=O)[C@H](C)[C@@H](O)[C@]1(C)O [Erythromycin, reference compound] | – | – | – | – | – | – | 2 (≈ 2.73 µM) | 0.5 (≈ 0.681 µM) | 4 (≈ 5.45 µM) | 0.5 (≈ 0.681 µM) | MIC (E. faecalis ATCC 29212; ATCC29212, Table 1): 2 µg/mL (≈ 2.73 µM); MIC (S. aureus ATCC 29213; ATCC29213, Table 1): 0.5 µg/mL (≈ 0.681 µM); MIC ([1]; ATCC12228, Table 1): 0.5 µg/mL (≈ 0.681 µM)
OCc1ccccn1 [Compound 105, 2-hydroxymethylpyridine] | – | – | – | – | – | – | 32 (≈ 293 µM) | 0.125 (≈ 1.15 µM) | 4 (≈ 36.7 µM) | 4 (≈ 36.7 µM) | MIC (S. pneumoniae ATCC 6301; [3]): 4 µg/mL (≈ 36.7 µM); MIC (E. faecium CT-26; CT26, Table 2): 32 µg/mL (≈ 293 µM)
Cc1ccc([B-]2(c3ccc(C)c(Cl)c3)OC(=O)c3c(OCCCC(=O)O)ccc[n+]32)cc1Cl [Compound 109] | 32 | 4 | 1 | 16 | 16 | 4 | – | – | – | – | –
O=C(O)c1ncccc1O [Compound 116, 3-hydroxypicolinic acid] | 4 | 0.25 | 2 | 4 | 64 | 1 | – | – | – | – | –
O=C(O)c1ncccc1O [Compound 112, 3-hydroxypicolinic acid] | 4 | – | 4 | 8 | 64 | 2 | – | – | – | – | –
CC(=O)Oc1ccc[n+]2c1C(=O)O[B-]2(c1ccc(C)c(Cl)c1)c1ccc(C)c(Cl)c1 [Compound 119] | 2 | – | 2 | 2 | 64 | 1 | – | – | – | – | –
O=C(O)c1ncccc1OCCN1CCOCC1 [Compound 108] | – | – | – | – | – | – | 4 (≈ 15.9 µM) | 0.25 (≈ 0.991 µM) | 64 (≈ 254 µM) | 4 (≈ 15.9 µM) | MIC (E. faecium CT-26; CT26, Table 2): 2 µg/mL (≈ 7.93 µM)
O=C(O)c1cccnc1C(=O)O [Compound 110, 3-carboxypicolinic acid] | – | – | – | – | – | – | 8 (≈ 47.9 µM) | 0.125 (≈ 0.748 µM) | 8 (≈ 47.9 µM) | 4 (≈ 23.9 µM) | MIC (E. faecium CT-26; CT26, Table 2): 8 µg/mL (≈ 47.9 µM)
Oc1cccc2cccnc12 [Compound 60, 8-hydroxyquinoline] | – | – | – | – | – | – | – | – | – | – | MIC E. faecalis ATCC 29212 (E. faecalis ATCC 29212; Table 1): 8 micrograms per ml; MIC S. pneumoniae ATCC 6301 (S. pneumoniae ATCC 6301; Table 1): 2 micrograms per ml; MIC M. catarrhalis ATCC 25238 [2]: 2 micrograms per ml; MIC S. aureus ATCC 29213 (S. aureus ATCC 29213; Table 1): 2 micrograms per ml; MIC E. faecium CT-26 (E. faecium CT-26; Table 1): 4 micrograms per ml; MIC S. epidermidis ATCC 12228 ([1]; Table 1): 1 micrograms per ml
Oc1ccc(F)c2cccnc12 [Compound 12] | – | – | – | – | – | – | – | – | – | – | MIC (E. faecalis ATCC 29212; ATCC29212, Table 1): 8 µg/mL (≈ 49 µM); MIC (S. pneumoniae ATCC 6301; ATCC6301, Table 1, read-out: MIC S. pneumoniae ATCC 6301): 2 µg/mL (≈ 12.3 µM); MIC M. catarrhalis ATCC 25238 [2]: 2 micrograms per ml; MIC S. aureus ATCC 29213 (S. aureus ATCC 29213; Table 1): 0.125 micrograms per ml; MIC (E. faecium CT-26; CT26, Table 1): 4 µg/mL (≈ 24.5 µM); MIC ([1]; ATCC12228, Table 1): 2 µg/mL (≈ 12.3 µM)
O=C(O)Cc1ccccn1 [Compound 106, 2-pyridylacetic acid] | – | – | – | – | – | – | 64 (≈ 467 µM) | 0.5 (≈ 3.65 µM) | 64 (≈ 467 µM) | 4 (≈ 29.2 µM) | MIC (E. faecium CT-26; CT26, Table 2): 64 µg/mL (≈ 467 µM)
O=C(O)c1ncccc1O [Compound 113, 3-hydroxypicolinic acid] | 2 | – | 0.5 | 64 | 64 | 1 | – | – | – | – | –
